# Results: ChEMBL document CHEMBL5579809, “Exploration of bromodomain ligand-linker conjugation sites for efficient CBP/p300 heterobifunctional degrader activity” (Bioorg Med Chem Lett, 2024)
# Activity calls are given as the source filed them. The calls are words filed in the database; no cut-off is given here.
# What was measured:
# [1] = target: T1, Protein cereblon/Histone acetyltransferase p300 (Homo sapiens) (UniProt Q09472+Q96SW2); experiment: PROTAC activity at CRBN/HiBiT-tagged p300 in human HAP1 cells assessed as total cumulative degradation by measuring AUC at 10 nM measured over 24 hrs by luminescence based analysis; assay type: cell-based
# T1 sequence (Q09472 2-2414 limits assumed): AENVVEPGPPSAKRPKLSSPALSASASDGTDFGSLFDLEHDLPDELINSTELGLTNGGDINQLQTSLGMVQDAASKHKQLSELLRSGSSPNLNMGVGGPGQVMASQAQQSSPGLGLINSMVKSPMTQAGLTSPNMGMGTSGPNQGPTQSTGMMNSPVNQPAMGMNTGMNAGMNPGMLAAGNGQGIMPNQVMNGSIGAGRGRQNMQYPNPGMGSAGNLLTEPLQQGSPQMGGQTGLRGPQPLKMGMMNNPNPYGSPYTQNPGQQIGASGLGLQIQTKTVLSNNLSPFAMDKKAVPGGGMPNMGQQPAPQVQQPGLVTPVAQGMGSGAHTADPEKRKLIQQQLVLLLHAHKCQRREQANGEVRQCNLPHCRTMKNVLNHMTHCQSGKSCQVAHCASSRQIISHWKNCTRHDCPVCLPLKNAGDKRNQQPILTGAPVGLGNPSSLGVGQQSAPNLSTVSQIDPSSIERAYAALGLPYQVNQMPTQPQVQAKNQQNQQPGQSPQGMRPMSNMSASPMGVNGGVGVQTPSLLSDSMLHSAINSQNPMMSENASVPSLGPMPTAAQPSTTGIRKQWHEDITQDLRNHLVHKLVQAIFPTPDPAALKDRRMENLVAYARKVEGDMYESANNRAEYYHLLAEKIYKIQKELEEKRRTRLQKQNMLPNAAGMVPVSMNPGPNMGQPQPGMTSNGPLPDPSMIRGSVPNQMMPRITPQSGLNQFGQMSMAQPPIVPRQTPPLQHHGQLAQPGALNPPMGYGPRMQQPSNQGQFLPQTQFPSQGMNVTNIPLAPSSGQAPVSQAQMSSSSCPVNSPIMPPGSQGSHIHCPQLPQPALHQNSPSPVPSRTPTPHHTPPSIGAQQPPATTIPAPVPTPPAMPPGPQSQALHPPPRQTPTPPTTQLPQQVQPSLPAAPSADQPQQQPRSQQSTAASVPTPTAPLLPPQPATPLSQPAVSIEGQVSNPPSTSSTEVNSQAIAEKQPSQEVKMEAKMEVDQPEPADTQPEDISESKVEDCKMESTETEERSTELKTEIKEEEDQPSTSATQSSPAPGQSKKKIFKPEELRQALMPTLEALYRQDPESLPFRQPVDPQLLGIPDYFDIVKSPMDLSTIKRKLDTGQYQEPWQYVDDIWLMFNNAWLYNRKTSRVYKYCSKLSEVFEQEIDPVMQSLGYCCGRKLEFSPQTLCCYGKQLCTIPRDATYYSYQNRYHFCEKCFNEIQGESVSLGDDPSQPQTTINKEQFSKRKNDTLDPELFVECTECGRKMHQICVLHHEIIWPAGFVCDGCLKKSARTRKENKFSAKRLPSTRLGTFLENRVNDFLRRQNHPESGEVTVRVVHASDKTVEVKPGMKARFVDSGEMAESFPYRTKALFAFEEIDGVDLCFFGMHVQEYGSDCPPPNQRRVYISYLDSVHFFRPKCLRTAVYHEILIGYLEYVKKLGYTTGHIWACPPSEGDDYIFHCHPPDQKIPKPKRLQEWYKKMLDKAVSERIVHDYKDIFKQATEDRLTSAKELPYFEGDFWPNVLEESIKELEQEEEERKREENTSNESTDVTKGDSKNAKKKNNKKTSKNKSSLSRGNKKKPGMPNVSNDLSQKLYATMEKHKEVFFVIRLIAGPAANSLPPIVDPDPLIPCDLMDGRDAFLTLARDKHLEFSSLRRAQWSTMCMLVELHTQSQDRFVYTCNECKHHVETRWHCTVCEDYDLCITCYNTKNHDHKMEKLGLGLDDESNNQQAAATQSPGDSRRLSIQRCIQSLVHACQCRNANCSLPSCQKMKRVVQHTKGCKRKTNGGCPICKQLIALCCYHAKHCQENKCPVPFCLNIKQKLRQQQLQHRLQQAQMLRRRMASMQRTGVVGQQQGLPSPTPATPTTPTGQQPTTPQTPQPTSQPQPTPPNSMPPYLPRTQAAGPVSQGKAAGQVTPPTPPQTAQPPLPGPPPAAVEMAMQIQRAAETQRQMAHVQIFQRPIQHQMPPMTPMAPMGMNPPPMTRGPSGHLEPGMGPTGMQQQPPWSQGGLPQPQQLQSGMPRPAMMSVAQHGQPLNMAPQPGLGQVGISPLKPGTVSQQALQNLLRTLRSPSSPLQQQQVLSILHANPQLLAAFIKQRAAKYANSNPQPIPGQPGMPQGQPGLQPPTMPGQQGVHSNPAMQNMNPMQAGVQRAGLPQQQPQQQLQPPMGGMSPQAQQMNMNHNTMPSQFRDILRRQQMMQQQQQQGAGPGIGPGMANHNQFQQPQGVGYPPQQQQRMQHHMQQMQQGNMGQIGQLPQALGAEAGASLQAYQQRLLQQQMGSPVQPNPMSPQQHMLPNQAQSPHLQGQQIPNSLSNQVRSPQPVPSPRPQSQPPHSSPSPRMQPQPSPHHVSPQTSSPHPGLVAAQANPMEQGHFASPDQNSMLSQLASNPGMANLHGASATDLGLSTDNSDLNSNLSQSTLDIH
# T1 sequence (Q96SW2 whole entry partner): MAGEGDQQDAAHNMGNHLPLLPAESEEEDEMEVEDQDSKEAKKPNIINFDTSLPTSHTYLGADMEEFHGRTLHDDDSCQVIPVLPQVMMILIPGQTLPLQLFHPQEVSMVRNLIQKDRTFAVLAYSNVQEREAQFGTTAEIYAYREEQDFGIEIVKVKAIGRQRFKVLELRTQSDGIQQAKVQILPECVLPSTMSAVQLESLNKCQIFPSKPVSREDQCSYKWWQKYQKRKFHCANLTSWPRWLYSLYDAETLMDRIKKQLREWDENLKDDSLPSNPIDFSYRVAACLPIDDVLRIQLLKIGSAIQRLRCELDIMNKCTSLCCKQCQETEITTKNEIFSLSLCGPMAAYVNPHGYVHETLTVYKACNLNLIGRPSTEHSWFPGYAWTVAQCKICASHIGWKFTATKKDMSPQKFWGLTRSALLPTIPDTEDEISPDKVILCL
# [2] = target: T2, Protein cereblon/CREB-binding protein (Homo sapiens) (UniProt Q92793+Q96SW2); experiment: PROTAC activity at CRBN/HiBiT-tagged CBP in human HAP1 cells assessed as induction of CBP degradation by measuring maximal efficacy at 1 nM measured over 24 hrs by luminescence based analysis relative to control; assay type: cell-based
# [3] = target: T1, Protein cereblon/Histone acetyltransferase p300 (Homo sapiens); experiment: PROTAC activity at CRBN/HiBiT-tagged p300 in human HAP1 cells assessed as induction of p300 degradation by measuring degradation rate at 1000 nM measured over 24 hrs by luminescence based analysis; assay type: cell-based
# [4] = target: T1, Protein cereblon/Histone acetyltransferase p300 (Homo sapiens); experiment: PROTAC activity at CRBN/HiBiT-tagged p300 in human HAP1 cells assessed as induction of p300 degradation by measuring maximal efficacy at 100 nM measured over 24 hrs by luminescence based analysis relative to control; assay type: cell-based
# [5] = target: T2, Protein cereblon/CREB-binding protein (Homo sapiens); experiment: PROTAC activity at CRBN/HiBiT-tagged CBP in human HAP1 cells assessed as induction of CBP degradation by measuring maximal efficacy at 0.1 nM measured over 24 hrs by luminescence based analysis relative to control; assay type: cell-based
# [6] = target: T1, Protein cereblon/Histone acetyltransferase p300 (Homo sapiens); experiment: PROTAC activity at CRBN/HiBiT-tagged p300 in human HAP1 cells assessed as induction of p300 degradation by measuring maximal efficacy at 1000 nM measured over 24 hrs by luminescence based analysis relative to control; assay type: cell-based
# [7] = target: T2, Protein cereblon/CREB-binding protein (Homo sapiens); experiment: PROTAC activity at CRBN/HiBiT-tagged CBP in human HAP1 cells assessed as total cumulative degradation by measuring AUC at 1000 nM measured over 24 hrs by luminescence based analysis; assay type: cell-based
# [8] = target: T2, Protein cereblon/CREB-binding protein (Homo sapiens); experiment: PROTAC activity at CRBN/HiBiT-tagged CBP in human HAP1 cells assessed as induction of CBP degradation by measuring maximal efficacy at 10 nM measured over 24 hrs by luminescence based analysis relative to control; assay type: cell-based
# [9] = target: T1, Protein cereblon/Histone acetyltransferase p300 (Homo sapiens); experiment: PROTAC activity at CRBN/HiBiT-tagged p300 in human HAP1 cells assessed as induction of p300 degradation by measuring degradation rate at 100 nM measured over 24 hrs by luminescence based analysis; assay type: cell-based
# [10] = target: T2, Protein cereblon/CREB-binding protein (Homo sapiens); experiment: PROTAC activity at CRBN/HiBiT-tagged CBP in human HAP1 cells assessed as induction of CBP degradation by measuring maximal efficacy at 100 nM measured over 24 hrs by luminescence based analysis relative to control; assay type: cell-based
# [11] = target: T2, Protein cereblon/CREB-binding protein (Homo sapiens); experiment: PROTAC activity at CRBN/HiBiT-tagged CBP in human HAP1 cells assessed as induction of CBP degradation by measuring degradation rate at 10 nM measured over 24 hrs by luminescence based analysis; assay type: cell-based
# [12] = target: T1, Protein cereblon/Histone acetyltransferase p300 (Homo sapiens); experiment: PROTAC activity at CRBN/HiBiT-tagged p300 in human HAP1 cells assessed as induction of p300 degradation by measuring maximal efficacy at 10 nM measured over 24 hrs by luminescence based analysis relative to control; assay type: cell-based
# [13] = target: T2, Protein cereblon/CREB-binding protein (Homo sapiens); experiment: PROTAC activity at CRBN/HiBiT-tagged CBP in human HAP1 cells assessed as total cumulative degradation by measuring AUC at 10 nM measured over 24 hrs by luminescence based analysis; assay type: cell-based
# [14] = target: T1, Protein cereblon/Histone acetyltransferase p300 (Homo sapiens); experiment: PROTAC activity at CRBN/HiBiT-tagged p300 in human HAP1 cells assessed as induction of p300 degradation by measuring degradation rate at 0.1 nM measured over 24 hrs by luminescence based analysis; assay type: cell-based
# [15] = target: T1, Protein cereblon/Histone acetyltransferase p300 (Homo sapiens); experiment: PROTAC activity at CRBN/HiBiT-tagged p300 in human HAP1 cells assessed as total cumulative degradation by measuring AUC at 100 nM measured over 24 hrs by luminescence based analysis; assay type: cell-based
# [16] = target: T1, Protein cereblon/Histone acetyltransferase p300 (Homo sapiens); experiment: Binding affinity to recombinant CRBN/p300 bromodomain (unknown origin) assessed as ternary complex formation at 1 to 1000 nM by Alphascreen-based proximity assay; assay type: protein assay; conditions: dose 1-1000 nM
# [17] = target: T1, Protein cereblon/Histone acetyltransferase p300 (Homo sapiens); experiment: PROTAC activity at CRBN/HiBiT-tagged p300 in human HAP1 cells assessed as total cumulative degradation by measuring AUC at 1 nM measured over 24 hrs by luminescence based analysis; assay type: cell-based
# [18] = target: T1, Protein cereblon/Histone acetyltransferase p300 (Homo sapiens); experiment: PROTAC activity at CRBN/HiBiT-tagged p300 in human HAP1 cells assessed as total cumulative degradation by measuring AUC at 0.1 nM measured over 24 hrs by luminescence based analysis; assay type: cell-based
# [19] = target: T1, Protein cereblon/Histone acetyltransferase p300 (Homo sapiens); experiment: PROTAC activity at CRBN/HiBiT-tagged p300 in human HAP1 cells assessed as induction of p300 degradation by measuring degradation rate at 1 nM measured over 24 hrs by luminescence based analysis; assay type: cell-based
# [20] = target: T2, Protein cereblon/CREB-binding protein (Homo sapiens); experiment: PROTAC activity at CRBN/HiBiT-tagged CBP in human HAP1 cells assessed as total cumulative degradation by measuring AUC at 0.1 nM measured over 24 hrs by luminescence based analysis; assay type: cell-based
# [21] = target: T2, Protein cereblon/CREB-binding protein (Homo sapiens); experiment: PROTAC activity at CRBN/HiBiT-tagged CBP in human HAP1 cells assessed as induction of CBP degradation by measuring degradation rate at 1000 nM measured over 24 hrs by luminescence based analysis; assay type: cell-based
# [22] = target: T1, Protein cereblon/Histone acetyltransferase p300 (Homo sapiens); experiment: PROTAC activity at CRBN/HiBiT-tagged p300 in human HAP1 cells assessed as induction of p300 degradation by measuring maximal efficacy at 1 nM measured over 24 hrs by luminescence based analysis relative to control; assay type: cell-based
# [23] = target: T2, Protein cereblon/CREB-binding protein (Homo sapiens); experiment: PROTAC activity at CRBN/HiBiT-tagged CBP in human HAP1 cells assessed as total cumulative degradation by measuring AUC at 1 nM measured over 24 hrs by luminescence based analysis; assay type: cell-based
# [24] = target: T1, Protein cereblon/Histone acetyltransferase p300 (Homo sapiens); experiment: PROTAC activity at CRBN/HiBiT-tagged p300 in human HAP1 cells assessed as total cumulative degradation by measuring AUC at 0.01 nM measured over 24 hrs by luminescence based analysis; assay type: cell-based
# [25] = target: T2, Protein cereblon/CREB-binding protein (Homo sapiens); experiment: Binding affinity to recombinant CRBN/CBP bromodomain (unknown origin) assessed as ternary complex formation at 1 to 1000 nM by Alphascreen-based proximity assay; assay type: protein assay; conditions: dose 1-1000 nM
# [26] = target: T1, Protein cereblon/Histone acetyltransferase p300 (Homo sapiens); experiment: PROTAC activity at CRBN/HiBiT-tagged p300 in human HAP1 cells assessed as induction of p300 degradation by measuring degradation rate at 10 nM measured over 24 hrs by luminescence based analysis; assay type: cell-based
# [27] = target: T2, Protein cereblon/CREB-binding protein (Homo sapiens); experiment: PROTAC activity at CRBN/HiBiT-tagged CBP in human HAP1 cells assessed as total cumulative degradation by measuring AUC at 0.01 nM measured over 24 hrs by luminescence based analysis; assay type: cell-based
# [28] = target: T1, Protein cereblon/Histone acetyltransferase p300 (Homo sapiens); experiment: PROTAC activity at CRBN/HiBiT-tagged p300 in human HAP1 cells assessed as total cumulative degradation by measuring AUC at 1000 nM measured over 24 hrs by luminescence based analysis; assay type: cell-based
# [29] = target: T2, Protein cereblon/CREB-binding protein (Homo sapiens); experiment: PROTAC activity at CRBN/HiBiT-tagged CBP in human HAP1 cells assessed as induction of CBP degradation by measuring maximal efficacy at 1000 nM measured over 24 hrs by luminescence based analysis relative to control; assay type: cell-based
# [30] = target: T1, Protein cereblon/Histone acetyltransferase p300 (Homo sapiens); experiment: PROTAC activity at CRBN/HiBiT-tagged p300 in human HAP1 cells assessed as induction of p300 degradation by measuring maximal efficacy at 0.1 nM measured over 24 hrs by luminescence based analysis relative to control; assay type: cell-based
# [31] = target: T2, Protein cereblon/CREB-binding protein (Homo sapiens); experiment: PROTAC activity at CRBN/HiBiT-tagged CBP in human HAP1 cells assessed as induction of CBP degradation by measuring degradation rate at 1 nM measured over 24 hrs by luminescence based analysis; assay type: cell-based
# [32] = target: T2, Protein cereblon/CREB-binding protein (Homo sapiens); experiment: PROTAC activity at CRBN/HiBiT-tagged CBP in human HAP1 cells assessed as induction of CBP degradation by measuring degradation rate at 0.1 nM measured over 24 hrs by luminescence based analysis; assay type: cell-based
# [33] = target: T2, Protein cereblon/CREB-binding protein (Homo sapiens); experiment: PROTAC activity at CRBN/HiBiT-tagged CBP in human HAP1 cells assessed as total cumulative degradation by measuring AUC at 100 nM measured over 24 hrs by luminescence based analysis; assay type: cell-based
# [34] = target: T2, Protein cereblon/CREB-binding protein (Homo sapiens); experiment: PROTAC activity at CRBN/HiBiT-tagged CBP in human HAP1 cells assessed as induction of CBP degradation by measuring degradation rate at 100 nM measured over 24 hrs by luminescence based analysis; assay type: cell-based
# [35] = target: Protein cereblon/Bromodomain-containing protein 4 (Homo sapiens) (UniProt O60885+Q96SW2); experiment: PROTAC activity at CRBN/HiBiT-tagged BRD4 in human HAP1 cells assessed as induction of BRD4 degradation measured over 24 hrs by luminescence based analysis; assay type: cell-based
# Protein cereblon/Bromodomain-containing protein 4 (Homo sapiens), sequence (Q96SW2 whole entry, looked up, other chains not shown): as the sequence (Q96SW2 whole entry partner) above
compound,measurement,setting,value
CNC(=O)N1CCc2c(c(N3CCCc4cc(-c5cnn(C)c5)c(C(F)F)cc43)nn2C2CCN(C(=O)CCOCCOCCOCCOCCNc3ccc4c(c3)C(=O)N(C3CCC(=O)NC3=O)C4=O)CC2)C1 (stereo not given),AUC,[1],5.1
same,Emax,[2],63%
same,Activity,[3],0.57 h⁻¹
same,Emax,[4],88%
same,Emax,[5],25%
same,Emax,[6],86%
same,AUC,[7],6.4
same,Emax,[8],86%
same,Activity,[9],1 h⁻¹
same,Emax,[10],89%
same,Activity,[11],1.1 h⁻¹
same,Emax,[12],83%
same,AUC,[13],4.4
same,Activity,[14],0.02 h⁻¹
same,AUC,[15],3.7
same,Activity,[16],Active
same,AUC,[17],12.2
same,AUC,[18],21.7
same,Activity,[19],0.37 h⁻¹
same,AUC,[20],20.7
same,Activity,[21],0.4 h⁻¹
same,Emax,[22],57%
same,AUC,[23],10.4
same,AUC,[24],26.1
same,Activity,[25],Active
same,Activity,[26],1 h⁻¹
same,AUC,[27],24.7
same,AUC,[28],4.8
same,Emax,[29],83%
same,Emax,[30],27%
same,Activity,[31],0.54 h⁻¹
same,Activity,[32],0.12 h⁻¹
same,AUC,[33],3.9
same,Activity,[34],0.81 h⁻¹
same,Activity,[35],inactive
